According to US11752161B2, “Pharmaceutical compositions, method of making and method of using thereof” (Gannex Pharma Co., Ltd., priority 2020, dated 2023):

Experiment: Solubility of the compound of Formula (I) in aqueous media without surfactant
Format: physicochemical
Details: aqueous buffer; hydrochloric acid solution, buffer, and water without surfactant, 37° C., pH 1.0˜9.0
Protocol: The very low solubility limits its use in the development as a drug candidate. Chinese patent application 202010105909.9 reports a semi-solid capsule technology that can substantially increase the dissolution of the compound shown in Formula (I), but the capsule needs to be stored in a cool place below room temperature, not exceeding 15° C., specifically in a closed container at 2 to 8° C.

In the case of `Cc1cc(OC[P@@]2(=O)OCC[C@@H](c3cccc(Cl)c3)O2)cc(C)c1Cc1ccc(O)c(C(C)C)c1` [Formula (I) compound], the solubility is reported as < 0.5 ng/mL.
